Measured values from patent publication US7846960B2, “FXR agonists” (Eli Lilly and Company, priority 2006, dated 2010).

Tests used:
LDLR−/− mice = assay: LDLR−/− Serum Lipid Modulation; type: in vivo; details: male LDLR−/− mice on western diet, 10 mg/kg, once daily oral gavage for seven days
Procedure: Acclimate animals for two weeks prior to study initiation. House mice individually in polycarbonate cages with filter tops, and maintain mice on a 12:12 hour light-dark cycle (lights on at 6:00 AM) at 21° C. Provide deionized water ad libitum and maintain for two weeks on ‘western diet’ TD 88137 Diet (42% fat, 0.15% cholesterol, Harlan Teklad) ad libitum. Optimize groups of five ten-week-old male LDLR−/− mice based on serum triglyceride and cholesterol levels. Dose groups once daily by oral gavage with various doses of the test compound dissolved in 5% EtOH/5% Solutol in NaCMC (1%), SLS (0.5%), antifoam (0.05%), Povidone (0.085%) for seven days. At the end of the seven-day dosing period, collect blood by cardiac puncture after asphyxiation in a CO2 chamber. […] Lipoproteins were separated by fast protein liquid chromatography, and cholesterol was quantitated with an in-line detection system. […] The colored product produced in the presence of cholesterol was monitored in the flow stream at 505 nm, and the analog voltage from the monitor was converted to a digital signal for collection and analysis. The change in voltage corresponding to change in cholesterol concentration was plotted vs. time, and the area under the curve corresponding to the elution of VLDL-C and HDL-C was calculated using Turbochrome (version 4.12F12) software from PerkinElmer (Norwalk, Conn.).

FXR = molecular target: T1, FXR (Homo sapiens, UniProt Q96RI1); assay: bDNA Assay for SHP mRNA; type: cell-based; details: human hepatocarcinoma Huh7 cells, 24 hours treatment, SHP mRNA by bDNA; read-out: SHP gene activation EC50
T1 construct: Plate human hepatocarcinoma Huh7 cells grown in DMEM:F12 with 10% fetal bovine serum; endogenous in cells; host or cells: Huh7 human hepatocarcinoma cells
T1 sequence (Q96RI1 1-486): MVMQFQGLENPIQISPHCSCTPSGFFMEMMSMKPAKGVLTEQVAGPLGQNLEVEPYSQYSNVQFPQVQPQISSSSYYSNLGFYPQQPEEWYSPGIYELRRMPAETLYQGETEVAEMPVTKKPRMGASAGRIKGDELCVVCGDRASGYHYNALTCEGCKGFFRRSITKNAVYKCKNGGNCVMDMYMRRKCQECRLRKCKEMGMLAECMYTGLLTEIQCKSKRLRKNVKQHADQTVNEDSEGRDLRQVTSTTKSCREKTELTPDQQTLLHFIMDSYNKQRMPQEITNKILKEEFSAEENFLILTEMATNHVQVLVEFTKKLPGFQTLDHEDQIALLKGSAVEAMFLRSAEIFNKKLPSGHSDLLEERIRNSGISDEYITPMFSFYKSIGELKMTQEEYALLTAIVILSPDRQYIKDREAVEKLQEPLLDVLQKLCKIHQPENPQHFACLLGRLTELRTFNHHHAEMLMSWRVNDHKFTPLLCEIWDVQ
Source text: FXR is a key, direct transcriptional regulator of the Small Heterodimer Partner (SHP) gene, accession number NM_021969, an atypical member of the nuclear receptor family that lacks a DNA-binding domain. SHP interacts with several conventional and orphan members of the nuclear receptor superfamily, including retinoid receptors and thyroid hormone receptor. SHP inhibits transactivation potential of superfamily members with which it interacts. […] Since FXR directly transactivates transcription of the SHP gene, the SHP branched DNA method (bDNA) quantitates FXR activation by ligands. Thus, increased expression of SHP mRNA, as determined by increase bDNA signal, signifies engagement of FXR by an agonist.
Plate human hepatocarcinoma Huh7 cells grown in DMEM:F12 with 10% fetal bovine serum and in 96 well plate at the density of 1×10^5/well. After overnight incubation, treat the cells with test compounds at various concentrations for 24 hours. […]
Incubate the lysis buffer for 15-minute at 37° C., then transfer 100 μL of the lysate from each well to the corresponding wells of the capture plate. […] Label the mRNA to be measured by addition of 100 μL QuantiGene® label probe working buffer then incubate for 60 minutes at 46° C. […] Incubate the plates at 37° C. for up to 30 minutes and then read on a luminometer (Packard Fusion Alpha, 1 second detection) to detect the luminescent signal. […]

For Cc1cc(CN(C)c2ccc(OCc3c(C(C)C)cnn3-c3c(Cl)cccc3Cl)cc2C)cc(C(=O)O)c1 [Example 199, 3-[({4-[2-(2,6-Dichloro-phenyl)-4-isopropyl-2H-pyrazol-3-ylmethoxy]-2-methyl-phenyl}-methyl-amino)-methyl]-5-methyl-benzoic acid], the “lowering of total cholesterol” value (LDLR−/− mice) was 60% and the lowering of triglycerides (LDLR−/− mice) was 63%.
CCN(Cc1cccc(C(=O)O)c1)c1ccc(OCc2c(C(C)C)cnn2-c2c(Cl)cccc2Cl)cc1C [Example 90, 3-[({4-[2-(2,6-Dichloro-phenyl)-4-isopropyl-2H-pyrazol-3-ylmethoxy]-2-methyl-phenyl}-ethyl-amino)-methyl]-benzoic acid] was tested, and the EC50 (FXR) was roughly 53 nM.
